From ChEMBL document CHEMBL5550153, “Semisynthesis and biological evaluation of novel honokiol thioethers against colon cancer cells HCT116 via inhibiting the transcription and expression of YAP protein” (Bioorg Med Chem, 2024)
The source made the active and inactive calls. The calls are words filed in the database; no cut-off is given here.

Tests used:
KYSE-450 = assay: Antiproliferative activity against human KYSE-450 cells assessed as inhibition of cell growth incubated for 48 hrs by MTT assay; assay type: functional, cell-based; conditions: KYSE-450, 48 h
HCT-116 [1] = assay: Antiproliferative activity against human HCT-116 cells assessed as inhibition of cell growth incubated for 48 hrs by MTT assay; assay type: functional, cell-based; conditions: HCT-116, 48 h
MGC-803 = assay: Antiproliferative activity against human MGC-803 cells assessed as inhibition of cell growth incubated for 48 hrs by MTT assay; assay type: functional, cell-based; conditions: MGC-803, 48 h
HCT-116 [2] = assay: Antiproliferative activity against human HCT-116 cells assessed as inhibition of cell growth at 2 to 6 micromol/L by MTT assay; assay type: functional, cell-based; conditions: dose 2-6 µmol/L, time 0-48 hrs, TDE = time-dependent effect
HCT-116 [3] = assay: Induction of cell cycle arrest in human HCT-116 cells assessed as downregulation of CDK4 level at 2 to 6 micromol/L measured after 48 hrs by Western blot analysis; assay type: functional, cell-based; conditions: dose 2-6 µmol/L
HCT-116 [4] = assay: Inhibition of colony formation in human HCT-116 cells at 2 to 8 micromol/L measured daily for 7 days by crystal violet staining based analysis; assay type: functional, cell-based; conditions: dose 2-8 µmol/L, time 7.0 day
HCT-116 [5] = assay: Induction of cell death in human HCT-116 cells at 2 to 6 micromol/L measured after 48 hrs by Annexin V-FITC/PI staining based flow cytometry analysis; assay type: functional; conditions: dose 2-6 µmol/L
HCT-116 [6] = assay: Downregulation of TAZ protein expression in human HCT-116 cells at 2 to 6 micromol/L measured after 48 hrs by Western blot analysis; assay type: functional, cell-based; conditions: dose 2-6 µmol/L
HCT-116 [7] = assay: Induction of cell cycle arrest in human HCT-116 cells assessed as increase in cells at G1 phase at 2 to 6 micromol/L measured after 48 hrs by PI staining based flow cytometry analysis relative to control; assay type: functional; conditions: dose 2-6 µmol/L, at 2 to 6 µM
HCT-116 [8] = assay: Downregulation of YAP gene transcription in human HCT-116 cells at 6 micromol/L measured after 48 hrs by RT-qPCR analysis; assay type: functional, cell-based; conditions: dose 6.0 µmol/L
HCT-116 [9] = assay: Antiproliferative activity against human HCT-116 cells assessed as inhibition of cell growth measured upto 48 hrs by MTT assay; assay type: functional, cell-based; conditions: dose 2-6 µmol/L
HCT-116 [10] = assay: Downregulation of YAP protein expression in human HCT-116 cells at 2 to 6 micromol/L measured after 48 hrs by Western blot analysis; assay type: functional, cell-based; conditions: dose 2-6 µmol/L
HCT-116 [11] = assay: Activation of Hippo signaling pathway in human HCT-116 cells assessed as increase in YAP phosphorylation level at 2 to 6 micromol/L incubated for 48 hrs by Western blotting analysis; assay type: cell-based; conditions: dose 2-6 µmol/L

| SMILES | IC50 (KYSE-450) | IC50 (HCT-116 [1]) | IC50 (MGC-803) | further results |
| --- | --- | --- | --- | --- |
| C=CCc1ccc(O)c(-c2ccc3c(c2)C[C@@H](CSc2nnc(-c4ccccc4Cl)o2)O3)c1 | > 50 µM | > 50 µM | > 50 µM |  |
| O=c1[nH]cc(F)c(=O)[nH]1 [FLUOROURACIL] | 32.6 µM | 9.63 µM | 3.88 µM |  |
| C=CCc1ccc(O)c(-c2ccc(O)c(CC=C)c2)c1 [HONOKIOL] | 32.4 µM | 17.2 µM | 11.8 µM |  |
| C=CCc1ccc(O)c(-c2ccc3c(c2)C[C@@H](CSc2nnc(-c4ccccc4Br)o2)O3)c1 | > 50 µM | > 50 µM | > 50 µM |  |
| C=CCc1ccc(O)c(-c2ccc3c(c2)C[C@@H](CSc2nnc(-c4ccc(F)cc4Cl)o2)O3)c1 | > 50 µM | > 50 µM | 20.4 µM |  |
| C=CCc1ccc(O)c(-c2ccc3c(c2)C[C@@H](CSc2nnc(-c4ccc(Br)cc4)o2)O3)c1 | > 50 µM | 52.2 µM | 44.6 µM |  |
| C=CCc1ccc(O)c(-c2ccc3c(c2)C[C@@H](CSc2nnc(-c4ccccc4)o2)O3)c1 | > 50 µM | 46.7 µM | 27.5 µM |  |
| C=CCc1ccc(O)c(-c2ccc3c(c2)C[C@@H](CSc2nnc(-c4cccc(F)c4)o2)O3)c1 | > 50 µM | 29.4 µM | 23.8 µM |  |
| C=CCc1ccc(O)c(-c2ccc3c(c2)C[C@@H](CSc2nnc(-c4ccncc4)o2)O3)c1 | > 50 µM | > 50 µM | 40.6 µM |  |
| C=CCc1ccc(O)c(-c2ccc3c(c2)C[C@@H](CSc2nnc(-c4ccccc4F)o2)O3)c1 | 38.7 µM | 20.1 µM | 16.2 µM |  |
| C=CCc1ccc(O)c(-c2ccc3c(c2)C[C@@H](CSc2nnc(-c4ccc(C)cc4)o2)O3)c1 | > 50 µM | 59.6 µM | 29.5 µM |  |
| C=CCc1ccc(O)c(-c2ccc3c(c2)C[C@@H](CSc2nnc(-c4ccc(C#N)cc4)o2)O3)c1 | > 50 µM | > 50 µM | > 50 µM |  |
| C=CCc1ccc(O)c(-c2ccc3c(c2)C[C@@H](CSc2nnc(-c4cccc(C)c4)o2)O3)c1 | > 50 µM | > 50 µM | 20.5 µM |  |
| C=CCc1ccc(O)c(-c2ccc3c(c2)C[C@@H](CSc2nnc(-c4ccc(OC)cc4)o2)O3)c1 | > 50 µM | > 50 µM | 39.7 µM |  |
| C=CCc1ccc(O)c(-c2ccc3c(c2)C[C@@H](CSc2nnc(-c4ccc(F)cc4)o2)O3)c1 | > 50 µM | 27.4 µM | 25.1 µM |  |
| C=CCc1ccc(O)c(-c2ccc3c(c2)C[C@@H](CSc2nnc(-c4ccccc4OC)o2)O3)c1 | > 50 µM | > 50 µM | > 50 µM |  |
| C=CCc1ccc(O)c(-c2ccc3c(c2)C[C@@H](CSc2nnc(-c4cccc(Cl)c4)o2)O3)c1 | > 50 µM | 43.4 µM | 24.6 µM |  |
| C=CCc1ccc(O)c(-c2ccc3c(c2)C[C@@H](CSc2nnc(-c4ccccc4C)o2)O3)c1 | > 50 µM | 47.7 µM | 25.7 µM |  |
| C=CCc1ccc(O)c(-c2ccc3c(c2)C[C@@H](CSc2nnc(-c4ccc(Cl)cc4Cl)o2)O3)c1 | > 50 µM | > 50 µM | 21.5 µM |  |
| C=CCc1ccc(O)c(-c2ccc3c(c2)C[C@@H](CSc2nnc(-c4ccc(Cl)cc4)o2)O3)c1 | > 50 µM | 37.9 µM | 27 µM |  |
| C=CCc1ccc(O)c(-c2ccc3c(c2)C[C@@H](CSc2nnc(-c4cccnc4)o2)O3)c1 | > 50 µM | 12.3 µM | 8.63 µM |  |
| C=CCc1ccc(O)c(-c2ccc3c(c2)C[C@@H](CSc2nnc(-c4cccc(OC)c4)o2)O3)c1 | > 50 µM | > 50 µM | > 50 µM |  |
| C=CCc1ccc(O)c(-c2ccc3c(c2)C[C@@H](CSc2nnc(-c4cccc(Br)c4)o2)O3)c1 | > 50 µM | 57.6 µM | 20.4 µM |  |
| C=CCc1ccc(O)c(-c2ccc3c(c2)C[C@@H](CSc2nnc(-c4ccc([N+](=O)[O-])cc4)o2)O3)c1 | > 50 µM | 6.1 µM | > 50 µM | Activity (HCT-116 [2]): Tde; Activity (HCT-116 [3]): Active; inhibition (HCT-116 [4]): Active; Activity (HCT-116 [5]): Active; Activity (HCT-116 [6]): Active; Activity (HCT-116 [7]): >20%; Activity (HCT-116 [8]): Active; Activity (HCT-116 [9]): Dose-Dependent Effect; Activity (HCT-116 [10]): Active; Activity (HCT-116 [11]): inactive |
